Reference: patent US12599596B2, “Anti-tumor pharmaceutical composition based on immune checkpoint blockade and use thereof” (Shanghai Hui Tian Jin Ze Biotech Co., Ltd., priority 2023, dated 2026)

How the values were obtained:
[1] = test system: PD-L1 in A549 lung cancer cells; experiment: PD-L1 expression by Western blotting; format: cell-based; details: concentration-dependent at 5, 10, 20 μM, 24 h
Method: (§1) Different types of well-grown tumor cells (RKO colorectal cancer cells, H1975 lung cancer cells, and A549 lung cancer cells) with a density of 80% or more were respectively spread on a 6-well plate at a density of 5×10^4 cells/well, the volume of the suspension in each well was 2 mL, and the cells were subsequently placed in an incubator at 37° C. for culture. […] After the cells were continuously cultured for 24 h, the culture was terminated, and subsequent detection was conducted.
(§2) After the culture was terminated, the cells were collected and washed with cold PBS 2 times. After the PBS residue was removed, a proper amount of cell lysate was added for cracking, and the cells were incubated on ice for 15 min and then centrifuged on a 4° C. centrifuge at 12,000 rpm for 15 min. The supernatant was carefully aspirated, the protein concentration was measured via the BCA method, a corresponding amount of loading buffer was added, the cells were evenly shaken and incubated in a 100° C. water bath for 10 min, and finally, the sample was subjected to a protein immunoblotting experiment.

[2] = test system: PD-L1 in H1975 lung cancer cells; experiment: PD-L1 expression by Western blotting; format: cell-based; details: concentration-dependent at 5, 10, 20 μM, 24 h
Method: as §1, §2

[3] = test system: PD-L1 in RKO colorectal cancer cells; experiment: PD-L1 expression by Western blotting; format: cell-based; details: concentration-dependent at 5, 10, 20 μM, 24 h
Method: as §1, §2

[4] = test system: PD-L1 on RKO colon cancer cell membranes; experiment: PD-L1 on cell membrane by immunofluorescence; format: cell-based; details: 20 μM CBD, different time
Method: • (1) Different types of tumor cells (RKO, HCT116 and HT29 colon cancer cells, and A549, H1975 and H460 lung cancer cells) in the logarithmic growth phase were respectively inoculated on a 6-well plate at an inoculum density of 2.5×10^5 cells/well with 2 mL/well and then placed in a cell incubator overnight incubation. The culture mixture was removed, CBD at different concentrations (0 μM, 5 μM, 10 μM, and 20 μM) was added for treatment for 24 h, the supernatant was removed, and the cells were washed with PBS 2 times, digested with pancreatin, centrifuged at 300×g and 4° C. for 5 min, and collected. The cells were washed with precooled PBS 2 times, centrifuged at 300×g and 4° C. for 5 min, and collected. The cells were washed 2 times with precooled PBS, 100 μL of PBS was added to resuspend the cells, an anti-PD-L1-Alexa Fluor 647 antibody was added, the cells were incubated at room temperature for 30 min and centrifuged at 300×g and 4° C. for 5 min, 300 μL of PBS was added to resuspend the cells in a flow tube, and an Alexa Fluor 647 signal was detected from the sample using a flow cytometer (excitation/emission wavelength of 647 nm/666 nm). • (2) The colorectal cancer cells (RKO) in the logarithmic growth phase were inoculated into a 6-well plate at a density of 2.5×10^5 cells/well, with a 2 mL volume of the suspension in each well. […]

MC38 colon cancer cells [5] = experiment: MC38 subcutaneous tumor model, curcumin-administrated groups, Embodiment 4; format: in vivo, C57BL/6 mice; details: CBD 100 mg/kg, curcumin 50 mg/kg, piperine 1 mg/kg, vitamin E 50 mg/kg, thymosin 2 mg/kg; vs control
Method: MC38 colon cancer cells were inoculated into 6-week-old female C57BL/6 mice (1×10^6 cells/mouse) to establish a subcutaneous tumor model. After the tumor volume reached 50 mm^3, the mice in the artemisinin-administered groups were grouped and administered with the following pharmaceutical combinations: (1) control group, (2) CBD (100 mg/kg)+vitamin E(α-tocopherol) (50 mg/kg)+thymosin (2 mg/kg) group, and (3) CBD (100 mg/kg)+artemisinin (20 mg/kg)+vitamin E(α-tocopherol) (50 mg/kg)+thymosin (2 mg/kg). The mice in curcumin-administrated group were grouped and administered with the following pharmaceutical combinations: (1) control group, (2) CBD (100 mg/kg) group, (3) curcumin (50 mg/kg)+piperine (1 mg/kg) group, (4) CBD (100 mg/kg)+curcumin (50 mg/kg)+piperine group (1 mg/kg), and (5) CBD (100 mg/kg)+curcumin (50 mg/kg)+piperine (1 mg/kg)+vitamin E(α-tocopherol) (50 mg/kg)+thymosin (2 mg/kg).
The tumor growth volume of the mice was monitored once every 2 days. The tumor volume was calculated as follows: tumor volume (mm^3)=0.5×(length)x(width)^2. The mice were sacrificed 14 days after drug administration, and the tumors were dissected. […]

MC38 colon cancer cells [6] = experiment: MC38 subcutaneous tumor model in C57BL/6 mice, Embodiment 5; format: in vivo; details: for Tumor volume: CBD 100 mg/kg, PAR 5 mg/kg, vitamin E 50 mg/kg
Method: MC38 colon cancer cells were inoculated into 6-week-old female C57BL/6 mice (1×10^6 cells/mouse) to establish a subcutaneous tumor model. After the tumor volume reached 50 mm^3, the mice were grouped and administered with the following pharmaceutical combinations: (1) control group (no drug administration), (2) anti-PD-1 ([…] per time) group, (3) vitamin E(α-tocopherol) (50 mg/kg) group, (4) CBD (100 mg/kg) group, (5) CBD (100 mg/kg)+vitamin E(α-tocopherol) (50 mg/kg) group, (6) PAR (5 mg/kg) group, (7) PAR (5 mg/kg)+vitamin E(α-tocopherol) (50 mg/kg) group, (8) CBD (100 mg/kg)+PAR (5 mg/kg) group, and (9) PAR (5 mg/kg)+CBD (100 mg/kg)+vitamin E(α-tocopherol) (50 mg/kg) group.
The tumor weight, tumor volume, and mouse body weight were monitored once every 2 days. The tumor volume was calculated as follows: tumor volume (mm^3)=0.5×(length)×(width)^2. The mice were sacrificed 14 days after drug administration, and the tumors were dissected.
The dissolving mode of the pharmaceutical composition was as follows: the pharmaceutical composition was dissolved in 10% DMSO+corn oil, the mice were gavaged with the pharmaceutical composition at 100 μl/mice, and the mice in the control group were injected with the same volume of the solvent.

## C=C(C)[C@@H]1CCC(C)=C[C@H]1c1c(O)cc(CCCCC)cc1O [CBD, cannabidiol]
[1]
  expression of PD-L1 (Western blotting): significantly inhibited the expression of PD-L1
[2]
  expression of PD-L1 (Western blotting): significantly inhibited the expression of PD-L1
[3]
  expression of PD-L1 (Western blotting): significantly inhibited the expression of PD-L1
[4]
  expression of PD-L1 on cell membranes (immunofluorescence): time-dependently decreased the expression of PD-L1
MC38 colon cancer cells [5]
  tumor growth / anti-tumor effect in words: inhibited to a certain degree
MC38 colon cancer cells [6]; Day 0
  Tumor volume: 0 mm^3
MC38 colon cancer cells [6]; Day 4
  Tumor volume: 63.99 mm^3
MC38 colon cancer cells [6]; Day 6
  Tumor volume: 113.24 mm^3
MC38 colon cancer cells [6]; Day 8
  Tumor volume: 120.48 mm^3
MC38 colon cancer cells [6]; Day 10
  Tumor volume: 176.51 mm^3
MC38 colon cancer cells [6]; Day 12
  Tumor volume: 241.75 mm^3
MC38 colon cancer cells [6]; Day 14
  Tumor volume: 314.83 mm^3
MC38 colon cancer cells [6]; Day 16
  Tumor volume: 359.72 mm^3
MC38 colon cancer cells [6]; normal mice, Embodiment 5, comparison between groups
  therapeutic / tumor inhibition effect in words: equivalent therapeutic effects
